According to publication PMC6128854 (Scientific Reports, 2018):
Positions of bridges follow the written chain, without caps; N, C: chain ends. Non-standard residues stand in square brackets, D forms with d. Residues, ends and D or L forms follow the SMILES beside them. Hyp = O=C(O)[C@@H]1C[C@@H](O)CN1

Key:
[1] = target: N-type calcium channel currents (Cav2.2) in rDRG neurons (Rattus norvegicus, UniProt Q02294); assay: cell-based; conditions: SEM
endogenous human Cav1.3 = endogenous human Cav1.3 (Homo sapiens, UniProt Q01668)
endogenous human Cav3.1 = endogenous human Cav3.1 (Homo sapiens, UniProt O43497)
side effects in rats = conditions: rat, in vivo

Chain of endogenous human Cav3.1 (O43497 whole entry): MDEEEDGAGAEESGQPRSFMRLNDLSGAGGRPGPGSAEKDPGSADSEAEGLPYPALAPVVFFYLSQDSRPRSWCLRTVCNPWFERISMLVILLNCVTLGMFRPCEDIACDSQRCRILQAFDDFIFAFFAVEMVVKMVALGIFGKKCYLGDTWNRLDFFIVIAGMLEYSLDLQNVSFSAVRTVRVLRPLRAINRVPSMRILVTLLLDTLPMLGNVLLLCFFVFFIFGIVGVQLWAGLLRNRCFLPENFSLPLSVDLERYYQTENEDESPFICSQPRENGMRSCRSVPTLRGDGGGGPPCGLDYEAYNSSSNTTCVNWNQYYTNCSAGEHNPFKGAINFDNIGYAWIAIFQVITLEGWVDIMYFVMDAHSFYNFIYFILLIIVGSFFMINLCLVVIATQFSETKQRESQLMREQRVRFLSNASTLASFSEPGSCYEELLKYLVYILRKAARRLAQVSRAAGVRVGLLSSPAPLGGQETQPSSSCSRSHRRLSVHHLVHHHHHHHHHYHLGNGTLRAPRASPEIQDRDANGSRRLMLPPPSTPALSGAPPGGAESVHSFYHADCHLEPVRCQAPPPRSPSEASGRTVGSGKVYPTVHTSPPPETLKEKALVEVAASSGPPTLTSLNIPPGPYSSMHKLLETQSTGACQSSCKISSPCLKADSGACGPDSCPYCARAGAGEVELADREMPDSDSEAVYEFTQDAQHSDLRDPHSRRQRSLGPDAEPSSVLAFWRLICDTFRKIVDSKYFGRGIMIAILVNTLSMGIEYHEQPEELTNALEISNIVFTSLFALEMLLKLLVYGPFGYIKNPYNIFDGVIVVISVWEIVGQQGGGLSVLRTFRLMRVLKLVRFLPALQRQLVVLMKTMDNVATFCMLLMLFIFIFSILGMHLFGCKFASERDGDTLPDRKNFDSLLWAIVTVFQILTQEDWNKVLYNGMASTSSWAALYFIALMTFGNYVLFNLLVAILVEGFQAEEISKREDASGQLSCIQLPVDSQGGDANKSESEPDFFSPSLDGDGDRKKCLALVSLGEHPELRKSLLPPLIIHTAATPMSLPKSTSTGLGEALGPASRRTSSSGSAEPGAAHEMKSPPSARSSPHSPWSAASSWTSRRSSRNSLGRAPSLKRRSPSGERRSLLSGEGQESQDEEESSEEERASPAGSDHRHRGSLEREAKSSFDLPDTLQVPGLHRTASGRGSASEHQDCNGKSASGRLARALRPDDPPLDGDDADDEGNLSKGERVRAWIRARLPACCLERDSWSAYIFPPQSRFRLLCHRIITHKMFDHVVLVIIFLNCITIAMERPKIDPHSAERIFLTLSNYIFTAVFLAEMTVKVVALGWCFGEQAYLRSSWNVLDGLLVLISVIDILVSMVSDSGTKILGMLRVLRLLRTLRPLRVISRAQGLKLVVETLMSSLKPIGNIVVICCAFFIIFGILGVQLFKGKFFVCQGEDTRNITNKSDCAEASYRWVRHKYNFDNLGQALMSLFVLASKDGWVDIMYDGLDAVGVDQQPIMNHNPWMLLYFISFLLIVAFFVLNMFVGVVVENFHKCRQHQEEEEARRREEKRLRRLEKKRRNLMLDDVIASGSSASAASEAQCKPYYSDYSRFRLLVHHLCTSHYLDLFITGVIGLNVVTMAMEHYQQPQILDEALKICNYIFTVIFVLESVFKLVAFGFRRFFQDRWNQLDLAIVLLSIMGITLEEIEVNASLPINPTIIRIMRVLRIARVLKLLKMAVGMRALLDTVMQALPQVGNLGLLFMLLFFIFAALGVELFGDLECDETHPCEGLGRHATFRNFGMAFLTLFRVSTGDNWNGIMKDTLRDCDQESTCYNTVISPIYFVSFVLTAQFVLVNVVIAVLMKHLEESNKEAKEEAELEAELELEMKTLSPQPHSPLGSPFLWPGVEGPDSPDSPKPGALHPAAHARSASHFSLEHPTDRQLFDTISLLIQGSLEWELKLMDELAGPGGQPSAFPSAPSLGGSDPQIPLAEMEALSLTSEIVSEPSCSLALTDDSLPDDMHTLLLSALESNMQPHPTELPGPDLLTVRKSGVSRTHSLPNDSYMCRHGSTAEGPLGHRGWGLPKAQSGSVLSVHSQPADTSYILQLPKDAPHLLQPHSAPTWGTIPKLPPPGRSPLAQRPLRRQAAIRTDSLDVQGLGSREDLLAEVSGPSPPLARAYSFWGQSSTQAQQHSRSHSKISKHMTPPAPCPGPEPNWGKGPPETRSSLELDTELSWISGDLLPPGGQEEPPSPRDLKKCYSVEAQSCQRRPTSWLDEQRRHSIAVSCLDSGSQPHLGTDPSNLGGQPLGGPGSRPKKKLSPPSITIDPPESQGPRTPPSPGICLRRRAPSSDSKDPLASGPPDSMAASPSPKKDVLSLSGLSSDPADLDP
Chain of N-type calcium channel currents (Cav2.2) in rDRG neurons (Q02294 whole entry, looked up): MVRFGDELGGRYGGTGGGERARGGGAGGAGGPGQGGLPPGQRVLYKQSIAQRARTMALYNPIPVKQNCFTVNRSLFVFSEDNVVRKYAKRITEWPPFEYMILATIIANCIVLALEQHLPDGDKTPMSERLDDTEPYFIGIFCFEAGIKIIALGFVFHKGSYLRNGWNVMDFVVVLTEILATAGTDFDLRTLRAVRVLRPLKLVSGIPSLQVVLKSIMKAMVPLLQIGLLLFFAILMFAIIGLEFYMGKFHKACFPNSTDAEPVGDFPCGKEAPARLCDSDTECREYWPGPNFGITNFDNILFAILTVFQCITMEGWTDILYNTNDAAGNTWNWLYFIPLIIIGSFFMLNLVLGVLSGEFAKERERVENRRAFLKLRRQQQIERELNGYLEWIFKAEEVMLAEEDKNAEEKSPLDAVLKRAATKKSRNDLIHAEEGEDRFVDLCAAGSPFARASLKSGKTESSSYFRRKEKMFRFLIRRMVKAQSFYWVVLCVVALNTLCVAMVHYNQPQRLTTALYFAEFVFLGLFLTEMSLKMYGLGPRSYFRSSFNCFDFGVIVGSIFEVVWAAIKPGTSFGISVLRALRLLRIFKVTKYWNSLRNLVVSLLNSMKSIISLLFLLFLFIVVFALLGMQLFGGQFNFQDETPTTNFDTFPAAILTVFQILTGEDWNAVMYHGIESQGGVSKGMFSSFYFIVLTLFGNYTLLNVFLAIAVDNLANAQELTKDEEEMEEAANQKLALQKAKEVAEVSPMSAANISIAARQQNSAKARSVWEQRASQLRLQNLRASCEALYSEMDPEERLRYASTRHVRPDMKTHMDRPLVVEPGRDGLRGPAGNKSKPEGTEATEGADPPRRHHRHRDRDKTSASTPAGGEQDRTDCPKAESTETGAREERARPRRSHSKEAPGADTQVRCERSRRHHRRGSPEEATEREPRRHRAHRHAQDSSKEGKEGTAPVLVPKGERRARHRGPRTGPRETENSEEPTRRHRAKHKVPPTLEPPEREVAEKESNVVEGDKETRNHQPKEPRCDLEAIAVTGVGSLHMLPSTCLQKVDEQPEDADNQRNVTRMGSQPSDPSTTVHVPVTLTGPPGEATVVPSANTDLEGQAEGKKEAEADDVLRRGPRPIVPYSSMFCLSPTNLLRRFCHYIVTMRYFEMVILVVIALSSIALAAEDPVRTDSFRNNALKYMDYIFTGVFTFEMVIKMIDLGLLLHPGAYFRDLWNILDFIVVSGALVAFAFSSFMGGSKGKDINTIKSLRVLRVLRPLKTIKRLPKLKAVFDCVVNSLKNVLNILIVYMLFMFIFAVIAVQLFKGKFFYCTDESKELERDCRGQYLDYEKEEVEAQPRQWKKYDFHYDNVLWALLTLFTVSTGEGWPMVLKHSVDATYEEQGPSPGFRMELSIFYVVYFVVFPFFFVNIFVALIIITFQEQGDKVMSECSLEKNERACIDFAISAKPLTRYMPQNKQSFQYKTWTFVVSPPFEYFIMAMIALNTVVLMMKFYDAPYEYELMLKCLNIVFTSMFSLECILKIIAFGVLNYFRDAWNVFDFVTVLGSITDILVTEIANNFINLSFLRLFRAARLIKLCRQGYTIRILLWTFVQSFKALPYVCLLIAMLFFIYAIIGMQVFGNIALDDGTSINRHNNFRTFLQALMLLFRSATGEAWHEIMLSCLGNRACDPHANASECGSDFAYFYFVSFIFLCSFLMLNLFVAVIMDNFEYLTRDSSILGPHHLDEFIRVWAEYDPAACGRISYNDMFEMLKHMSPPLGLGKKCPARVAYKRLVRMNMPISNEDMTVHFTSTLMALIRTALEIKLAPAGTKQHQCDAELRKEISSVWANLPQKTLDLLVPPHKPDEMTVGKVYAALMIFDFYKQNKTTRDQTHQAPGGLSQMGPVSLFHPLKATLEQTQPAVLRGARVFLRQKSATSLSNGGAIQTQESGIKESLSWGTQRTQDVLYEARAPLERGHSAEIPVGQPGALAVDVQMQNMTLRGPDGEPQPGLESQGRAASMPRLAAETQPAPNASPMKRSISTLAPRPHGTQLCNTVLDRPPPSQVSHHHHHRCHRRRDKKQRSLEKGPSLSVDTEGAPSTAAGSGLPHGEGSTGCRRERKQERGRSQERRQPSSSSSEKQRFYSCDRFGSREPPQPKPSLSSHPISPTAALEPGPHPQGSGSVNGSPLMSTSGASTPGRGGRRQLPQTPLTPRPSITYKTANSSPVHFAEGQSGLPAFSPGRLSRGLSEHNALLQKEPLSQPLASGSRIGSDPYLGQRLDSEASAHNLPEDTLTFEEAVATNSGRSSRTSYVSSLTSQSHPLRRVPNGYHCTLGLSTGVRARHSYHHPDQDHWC

Row | Structure (SMILES) | IC50 [1] | activity at endogenous human Cav1.3 (endogenous human Cav1.3) | activity at endogenous human Cav3.1 (endogenous human Cav3.1) | duration of side effects (side effects in rats) | therapeutic index (ratio of ED50 visual side effect score to ED50 mechanical PWT) (side effects in rats) | ED50 for visual side effect score (side effects in rats; SEM)
1 | CC[C@H](C)[C@@H]1NC(=O)[C@@H]2CSSC[C@@H]3NC(=O)[C@H](CCCCN)NC(=O)[C@H](CO)NC(=O)CNC(=O)[C@@H]4C[C@@H](O)CN4C(=O)[C@@H]4CCCN4C(=O)[C@H](CCCCN)NC(=O)[C@@H](N)CSSC[C@H](NC(=O)[C@H](CSSC[C@@H](C(=O)N[C@@H](CCCNC(=N)N)C(=O)N[C@@H](CCCCN)C(=O)N[C@@H](Cc4ccc(O)cc4)C(=O)N[C@@H](Cc4ccc(O)cc4)C(=O)N[C@@H](CC(N)=O)C(=O)O)NC(=O)[C@H](CCCNC(=N)N)NC(=O)[C@H](CCCCN)NC(=O)[C@H]([C@@H](C)O)NC(=O)[C@H](Cc4ccc(O)cc4)NC(=O)[C@H](CO)NC1=O)NC(=O)[C@H](CC(=O)O)NC(=O)[C@H](CCCNC(=N)N)NC(=O)[C@H](CCSC)NC(=O)[C@H](CO)NC(=O)[C@@H]1C[C@@H](O)CN1C(=O)[C@H](CO)NC3=O)C(=O)N[C@@H]([C@@H](C)O)C(=O)N[C@@H]([C@@H](C)O)C(=O)N2 [MoVIA] (H-CKP[Hyp]GSKCS[Hyp]SMRDCCTTCISYTKRCRKYYN-OH; disulfide 1-16, 8-19, 15-26) | 80 ± 10 nM | inactive | inactive | – | – | –
2 | CC[C@H](C)[C@@H]1NC(=O)[C@@H]2CSSC[C@@H]3NC(=O)[C@H](CCCCN)NC(=O)[C@H](CO)NC(=O)CNC(=O)[C@@H]4C[C@@H](O)CN4C(=O)[C@@H]4CCCN4C(=O)[C@H](CCCCN)NC(=O)[C@@H](N)CSSC[C@H](NC(=O)[C@H](CSSC[C@@H](C(=O)N[C@@H](CCCNC(=N)N)C(=O)N[C@@H](CCCCN)C(=O)N[C@@H](Cc4ccc(O)cc4)C(=O)N[C@@H](Cc4ccc(O)cc4)C(=O)O)NC(=O)[C@H](CCCNC(=N)N)NC(=O)[C@H](CCCCN)NC(=O)[C@H]([C@@H](C)O)NC(=O)[C@H](Cc4ccc(O)cc4)NC(=O)[C@H](CO)NC1=O)NC(=O)[C@H](CC(=O)O)NC(=O)[C@H](CCCNC(=N)N)NC(=O)[C@H](CCSC)NC(=O)[C@H](CO)NC(=O)[C@@H]1C[C@@H](O)CN1C(=O)[C@H](CO)NC3=O)C(=O)N[C@@H]([C@@H](C)O)C(=O)N[C@@H]([C@@H](C)O)C(=O)N2 [MoVIB] (H-CKP[Hyp]GSKCS[Hyp]SMRDCCTTCISYTKRCRKYY-OH; disulfide 1-16, 8-19, 15-26) | 180 ± 30 nM | inactive | inactive | up to 4 h | 2.2 | 0.09 ± 0.05 nmol
